Measured values: patent US20230286958A1, “PLASMA KALLIKREIN INHIBITORS” (Merck Sharp & Dohme LLC, priority 2020, published 2023)

Key:
Human plasma kallikrein = Human plasma kallikrein (Homo sapiens (Human), UniProt P03952); test: Kallikrein Assay (fluorogenic substrate Acetyl-K-P-R-AFC); assay type: biochemical; details: Plasma Kallikrein (PKal)
Description: (§1) The effectiveness of a compound of the present invention as an inhibitor of Kallikrein can be determined using a relevant purified serine protease, and an appropriate synthetic substrate. The rate of hydrolysis of the chromogenic or fluorogenic substrate by the relevant serine protease was measured both in the absence and presence of compounds of the present invention. Assays were conducted at room temperature or at 37° C. […] A decrease in the rate of fluorescence change in the presence of inhibitor is indicative of enzyme inhibition. Such methods are known to one skilled in the art. The results of this assay are expressed as the half-maximal inhibitory concentrations (IC50), or the inhibitory constant, Ki.
Kallikrein determinations were made in 50 mM HEPES buffer at pH 7.4 containing 150 mM NaCl, 5 mM CaC12, and 0.1% PEG 8000 (polyethylene glycol; Fisher Scientific). Determinations were made using purified Human plasma kallikrein at a final concentration of 0.5 nM (Enzyme Research Laboratories) and the synthetic substrate, Acetyl-K-P-R-AFC (Sigma # C6608) at a concentration of […].
Times required to achieve equilibration between enzyme and inhibitor were determined in control experiments. […] IC50 was determined by inflection point from a four parameter logistic curve fit. Ki was calculated using the Cheng Prusoff equation, Ki = IC50/(1+([S]/Km)).

human Factor XIa = human Factor XIa (Homo sapiens (Human), UniProt P03951); test: Factor XIa Assay (fluorogenic substrate GPR-AFC); assay type: biochemical; details: Factor XIa (FXIa)
Chain of human Factor XIa (P03951 388-625 limits assumed): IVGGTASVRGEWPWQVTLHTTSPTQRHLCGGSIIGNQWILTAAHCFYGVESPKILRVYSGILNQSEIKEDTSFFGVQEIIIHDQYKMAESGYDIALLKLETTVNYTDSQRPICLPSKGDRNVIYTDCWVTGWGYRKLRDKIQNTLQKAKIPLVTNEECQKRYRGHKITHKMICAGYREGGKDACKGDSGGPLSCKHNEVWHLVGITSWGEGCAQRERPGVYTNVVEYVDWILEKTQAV
Chain of human Factor XIa (P03951 19-387 partner limits assumed): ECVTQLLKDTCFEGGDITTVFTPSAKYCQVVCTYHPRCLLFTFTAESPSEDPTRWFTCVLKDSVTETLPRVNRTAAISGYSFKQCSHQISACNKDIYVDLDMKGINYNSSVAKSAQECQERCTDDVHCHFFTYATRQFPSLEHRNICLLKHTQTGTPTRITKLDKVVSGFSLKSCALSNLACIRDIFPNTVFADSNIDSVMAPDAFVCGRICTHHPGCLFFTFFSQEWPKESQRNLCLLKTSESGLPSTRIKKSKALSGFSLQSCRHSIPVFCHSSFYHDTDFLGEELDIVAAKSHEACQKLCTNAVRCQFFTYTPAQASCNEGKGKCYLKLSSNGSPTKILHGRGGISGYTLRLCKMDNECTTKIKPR
Description: as §1, with “Coagulation Factor XIa” for “Kallikrein”
Compounds were pre-incubated for 30 minutes at 25° C. with human (0.04 nM) Factor XIa in 50 mM HEPES buffer with 150 mM sodium chloride, 5 mM calcium chloride, 0.1% PEG 8000, pH 7.4. […] The % inhibition for each data point was calculated from the data and analyzed using the log (inhibitor) vs. response four parameters equation to determine the half-maximal inhibitory concentrations (IC50). The IC50 were converted to equilibrium inhibitory constants (Ki) using the Cheng-Prusoff equation.

Chain of Human plasma kallikrein (P03952 391-638): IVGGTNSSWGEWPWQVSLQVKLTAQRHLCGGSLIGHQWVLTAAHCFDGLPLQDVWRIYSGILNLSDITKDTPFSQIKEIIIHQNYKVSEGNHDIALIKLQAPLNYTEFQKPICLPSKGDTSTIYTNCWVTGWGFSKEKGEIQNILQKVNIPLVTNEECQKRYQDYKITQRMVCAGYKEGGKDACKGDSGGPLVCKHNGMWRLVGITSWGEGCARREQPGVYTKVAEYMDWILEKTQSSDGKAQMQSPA
Chain of Human plasma kallikrein (P03952 20-390 partner): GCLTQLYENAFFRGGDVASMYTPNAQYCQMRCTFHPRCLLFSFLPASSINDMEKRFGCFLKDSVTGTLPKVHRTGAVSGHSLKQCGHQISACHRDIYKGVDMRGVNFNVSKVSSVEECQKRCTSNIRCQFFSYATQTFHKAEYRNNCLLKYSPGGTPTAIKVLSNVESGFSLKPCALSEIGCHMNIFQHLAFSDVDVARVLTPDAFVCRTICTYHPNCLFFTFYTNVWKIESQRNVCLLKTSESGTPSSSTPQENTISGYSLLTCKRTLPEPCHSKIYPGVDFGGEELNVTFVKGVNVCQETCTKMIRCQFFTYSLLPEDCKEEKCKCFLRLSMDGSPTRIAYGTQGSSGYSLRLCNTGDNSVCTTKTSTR

| Compound | IC50 (Human plasma kallikrein) [nM] | IC50 (human Factor XIa) [nM] |
| --- | --- | --- |
| Cc1cc(C(C)n2cc(NC(=O)c3cc(-c4c(C(F)F)ccc(Cl)c4F)nnc3C)cn2)cnc1N1C[C@H]2C[C@H]2C1=O (single isomer, unassigned) [Example 122, 6-(3-Chloro-6-(difluoromethyl)-2-fluorophenyl)-3-methyl-N-(1-((R or S)-1-(5-methyl-6-((1R,5S)-2-oxo-3-azabicyclo[3.1.0]hexan-3-yl)pyridin-3-yl)ethyl)-1H-pyrazol-4-yl)pyridazine-4-carboxamide] | 14.2 | 5260 |
| Cc1ncc(-c2c(C(F)F)ccc(Cl)c2F)nc1C(=O)Nc1cnn([C@H](C)c2cnc(N3C[C@H]4C[C@H]4C3=O)c(O)c2)c1 [Example 216, 6-(3-Chloro-6-(difluoromethyl)-2-fluorophenyl)-N-(1-((R)-1-(5-hydroxy-6-((1R,5S)-2-oxo-3-azabicyclo[3.1.0]hexan-3-yl)pyridin-3-yl)ethyl)-1H-pyrazol-4-yl)-3-methylpyrazine-2-carboxamide] | 2.8 | 8420 |
| 6-(3-Chloro-2-fluoro-6-(methylsulfonyl)phenyl)-N-(1-((S or R)-1-(4-methyl-2-((1R,SS)-2-oxo-3-azabicyclo[3.1.0]hexan-3-yl)pyrimidin-5-yl)ethyl)- 1H-pyrazol-4-yl)pyrazine-2-carboxamide [Example 86] | 36 | > 10000 |
| COCc1ncc(-c2c(C(F)F)ccc(Cl)c2F)nc1C(=O)Nc1cnn(C(C)c2cnc(N3C[C@H]4C[C@H]4C3=O)c(C)n2)c1 (single isomer, unassigned) [Example 125, 6-(3-Chloro-6-(difluoromethyl)-2-fluorophenyl)-3-(methoxymethyl)-N-(1-((S or R)-1-(6-methyl-5-((1R,5S)-2-oxo-3-azabicyclo[3.1.0]hexan-3-yl)pyrazin-2-yl)ethyl)-1H-pyrazol-4-yl)pyrazine-2-carboxamide] | 1.2 | 449 |
| Cc1cc(C(C)n2cc(NC(=O)c3cc(-c4c(C(F)F)ccc(Cl)c4F)c[n+]([O-])c3)cn2)cnc1N1C[C@H]2C[C@H]2C1=O (single isomer, unassigned) [Example 106, 5-(3-Chloro-6-(difluoromethyl)-2-fluorophenyl)-N-(1-((S or R)-1-(5-methyl-6-((1R,5S)-2-oxo-3-azabicyclo[3.1.0]hexan-3-yl)pyridin-3-yl)ethyl)-1H-pyrazol-4-yl)-1-(l1-oxidanyl)-114-pyridine-3-carboxamide] | 1.4 | 103 |
| Cc1ncc(-c2c(C(F)F)ccc(Cl)c2F)nc1C(=O)Nc1cnn(C(CO)c2cnc(N3C[C@H]4C[C@H]4C3=O)nc2)c1 (single isomer, unassigned) [Example 165, 6-(3-Chloro-6-(difluoromethyl)-2-fluorophenyl)-N-(1-((S or R)-2-hydroxy-1-(2-((1R,5S)-2-oxo-3-azabicyclo[3.1.0]hexan-3-yl)pyrimidin-5-yl)ethyl)-1H-pyrazol-4-yl)-3-methylpyrazine-2-carboxamide] | 20.7 | 2050 |
| Cc1cc(Cn2cc(NC(=O)c3nc(-c4c(C(F)F)ccc(Cl)c4F)cnc3C(C)O)cn2)nnc1N1C[C@H]2C[C@H]2C1=O (single isomer, unassigned) [Example 208] | 12.7 | 1050 |
| Cc1cc(C(C)n2cc(NC(=O)c3cc(-c4c(C(F)F)ccc(Cl)c4F)nnc3C)cn2)cnc1N1C[C@H]2C[C@H]2C1=O (single isomer, unassigned) [Example 121, 6-(3-Chloro-6-(difluoromethyl)-2-fluorophenyl)-3-methyl-N-(1-((S or R)-1-(5-methyl-6-((1R,5S)-2-oxo-3-azabicyclo[3.1.0]hexan-3-yl)pyridin-3-yl)ethyl)-1H-pyrazol-4-yl)pyridazine-4-carboxamide] | 4.5 | > 10000 |
| O=C(Nc1cnn(Cc2cnc(N3C[C@H]4C[C@H]4C3=O)nc2)c1)c1nc(-c2c(C(F)F)ccc(Cl)c2F)cnc1COC1CC1 [Example 116, 6-(3-Chloro-6-(difluoromethyl)-2-fluorophenyl)-3-(cyclopropoxymethyl)-N-(1-((2-((1R,5S)-2-oxo-3-azabicyclo[3.1.0]hexan-3-yl)pyrimidin-5-yl)methyl)-1H-pyrazol-4-yl)pyrazine-2-carboxamide] | 19.1 | 4380 |
| Cc1nc(C(C)n2cc(NC(=O)c3cncc(-c4c(OC(F)F)ccc(Cl)c4F)n3)cn2)cnc1N1C[C@H]2C[C@H]2C1=O (single isomer, unassigned) [Example 16, 6-(3-Chloro-6-(difluoromethoxy)-2-fluorophenyl)-N-(1-((S or R)-1-(6-methyl-5-((1R,5S)-2-oxo-3-azabicyclo[3.1.0]hexan-3-yl)pyrazin-2-yl)ethyl)-1H-pyrazol-4-yl)pyrazine-2-carboxamide] | 1.9 | 772 |
| Cc1nc(C(C)n2cc(NC(=O)c3cncc(-c4c(C(F)F)ccc(Cl)c4F)n3)cn2)ncc1N1C[C@H]2C[C@H]2C1=O (single isomer, unassigned) [Example 3, 6-(3-Chloro-6-(difluoromethyl)-2-fluorophenyl)-N-(1-((S or R)-1-(4-methyl-5-((1R,5S)-2-oxo-3-azabicyclo[3.1.0]hexan-3-yl)pyrimidin-2-yl)ethyl)-1H-pyrazol-4-yl)pyrazine-2-carboxamide] | 1 | > 10000 |
| Cc1cc([C@@H](C)n2cc(NC(=O)c3nc(-c4c(OC(F)F)ccc(Cl)c4F)cnc3CO)cn2)cnc1N1C[C@H]2C[C@H]2C1=O [Example 227, 6-(3-Chloro-6-(difluoromethoxy)-2-fluorophenyl)-3-(hydroxymethyl)-N-(1-((R)-1-(5-methyl-6-((1R,5S)-2-oxo-3-azabicyclo[3.1.0]hexan-3-yl)pyridin-3-yl)ethyl)-1H-pyrazol-4-yl)pyrazine-2-carboxamide] | 0.6 | 25 |
| Cc1nc(N2C[C@H]3C[C@H]3C2=O)ncc1Cn1cc(NC(=O)c2nc(-c3c(S(C)(=O)=O)ccc(Cl)c3F)cnc2C)cn1 [Example 85, 6-(3 -Chloro-2-fluoro-6-(methylsulfonyl)phenyl)-3-methyl-N-(1-((4-methyl-2-((1R,5S)-2-oxo-3-azabicyclo[3.1.0]hexan-3-yl)pyrimidin-5-yl)methyl)-1H-pyrazol-4-yl)pyrazine-2-carboxamide] | 10.1 | 2070 |
| Cc1cc(Cn2cc(NC(=O)c3nc(-c4c(C(F)F)ccc(Cl)c4F)cnc3C(C)O)cn2)nnc1N1C[C@H]2C[C@H]2C1=O (single isomer, unassigned) [Example 209] | 3.8 | 167 |
| CC(c1cnc(N2C[C@H]3C[C@H]3C2=O)c2c1CCC2)n1cc(NC(=O)c2cncc(-c3c(C(F)F)ccc(Cl)c3F)n2)cn1 (single isomer, unassigned) [Example 141, 6-(3-Chloro-6-(difluoromethyl)-2-fluorophenyl)-N-(1-((S or R)-1-(1-((1R,5S)-2-oxo-3-azabicyclo[3.1.0]hexan-3-yl)-6,7-dihydro-5H-cyclopenta[c]pyridin-4-yl)ethyl)-1H-pyrazol-4-yl)pyrazine-2-carboxamide] | 1.1 | 906 |
| Cc1nc(N2C[C@H]3C[C@H]3C2=O)ncc1Cn1cc(NC(=O)c2nc(-c3c(C(F)F)ccc(Cl)c3F)cnc2C)cn1 [Example 33, 6-(3-Chloro-6-(difluoromethyl)-2-fluorophenyl)-3-methyl-N-(1-((4-methyl-2-((1R,5S)-2-oxo-3-azabicyclo[3.1.0]hexan-3-yl)pyrimidin-5-yl)methyl)-1H-pyrazol-4-yl)pyrazine-2-carboxamide] | 2.5 | 875 |
| Cc1cc(C(C)n2cc(NC(=O)c3nc(-c4c(C(F)F)ccc(Cl)c4F)cnc3CO)cn2)cnc1N1C[C@H]2C[C@H]2C1=O (single isomer, unassigned) [Example 200, 6-(3-Chloro-6-(difluoromethyl)-2-fluorophenyl)-3-(hydroxymethyl)-N-(1-((R or S)-1-(5-methyl-6-((1R,5S)-2-oxo-3-azabicyclo[3.1.0]hexan-3-yl)pyridin-3-yl)ethyl)-1H-pyrazol-4-yl)pyrazine-2-carboxamide] | 0.2 |  |
| Cc1cc(C(C)n2cc(NC(=O)c3nc(-c4c(C(F)F)ccc(Cl)c4F)cnc3CO)cn2)cnc1N1C[C@H]2C[C@H]2C1=O (single isomer, unassigned) [Example 199, 6-(3-Chloro-6-(difluoromethyl)-2-fluorophenyl)-3-(hydroxymethyl)-N-(1-((S or R)-1-(5-methyl-6-((1R,5S)-2-oxo-3-azabicyclo[3.1.0]hexan-3-yl)pyridin-3-yl)ethyl)-1H-pyrazol-4-yl)pyrazine-2-carboxamide] | 0.2 |  |
